Assay results from US8324245B2, “Quinoline derivative and quinazoline derivative inhibiting self-phosphorylation of hepatocytus proliferator receptor, and medicinal composition containing the same” (Kyowa Hakko Kirin Co., Ltd., priority 2001, dated 2012).

Molecular target: T1, met (HGF receptor) in human gastric cancer cells MKN45 (Homo sapiens, UniProt P08581)
T1 construct: endogenous in cells; host or cells: MKN45 human gastric cancer cells
Test: Inhibitory activity against met-autophosphorylation using ELISA method (2), MKN45 cells, HGF-independent
Type: cell-based
Outline: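 Met autophosphorylation was read by sandwich ELISA: phosphotyrosine capture (PY20), anti-HGF receptor detection, peroxidase read-out at 450 nm. Lysates came from MKN45 gastric cancer cells kept in 0.1% FCS RPMI and treated 1 h at 37 °C with test compound, with no added HGF.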

T1 sequence (P08581 25-1390): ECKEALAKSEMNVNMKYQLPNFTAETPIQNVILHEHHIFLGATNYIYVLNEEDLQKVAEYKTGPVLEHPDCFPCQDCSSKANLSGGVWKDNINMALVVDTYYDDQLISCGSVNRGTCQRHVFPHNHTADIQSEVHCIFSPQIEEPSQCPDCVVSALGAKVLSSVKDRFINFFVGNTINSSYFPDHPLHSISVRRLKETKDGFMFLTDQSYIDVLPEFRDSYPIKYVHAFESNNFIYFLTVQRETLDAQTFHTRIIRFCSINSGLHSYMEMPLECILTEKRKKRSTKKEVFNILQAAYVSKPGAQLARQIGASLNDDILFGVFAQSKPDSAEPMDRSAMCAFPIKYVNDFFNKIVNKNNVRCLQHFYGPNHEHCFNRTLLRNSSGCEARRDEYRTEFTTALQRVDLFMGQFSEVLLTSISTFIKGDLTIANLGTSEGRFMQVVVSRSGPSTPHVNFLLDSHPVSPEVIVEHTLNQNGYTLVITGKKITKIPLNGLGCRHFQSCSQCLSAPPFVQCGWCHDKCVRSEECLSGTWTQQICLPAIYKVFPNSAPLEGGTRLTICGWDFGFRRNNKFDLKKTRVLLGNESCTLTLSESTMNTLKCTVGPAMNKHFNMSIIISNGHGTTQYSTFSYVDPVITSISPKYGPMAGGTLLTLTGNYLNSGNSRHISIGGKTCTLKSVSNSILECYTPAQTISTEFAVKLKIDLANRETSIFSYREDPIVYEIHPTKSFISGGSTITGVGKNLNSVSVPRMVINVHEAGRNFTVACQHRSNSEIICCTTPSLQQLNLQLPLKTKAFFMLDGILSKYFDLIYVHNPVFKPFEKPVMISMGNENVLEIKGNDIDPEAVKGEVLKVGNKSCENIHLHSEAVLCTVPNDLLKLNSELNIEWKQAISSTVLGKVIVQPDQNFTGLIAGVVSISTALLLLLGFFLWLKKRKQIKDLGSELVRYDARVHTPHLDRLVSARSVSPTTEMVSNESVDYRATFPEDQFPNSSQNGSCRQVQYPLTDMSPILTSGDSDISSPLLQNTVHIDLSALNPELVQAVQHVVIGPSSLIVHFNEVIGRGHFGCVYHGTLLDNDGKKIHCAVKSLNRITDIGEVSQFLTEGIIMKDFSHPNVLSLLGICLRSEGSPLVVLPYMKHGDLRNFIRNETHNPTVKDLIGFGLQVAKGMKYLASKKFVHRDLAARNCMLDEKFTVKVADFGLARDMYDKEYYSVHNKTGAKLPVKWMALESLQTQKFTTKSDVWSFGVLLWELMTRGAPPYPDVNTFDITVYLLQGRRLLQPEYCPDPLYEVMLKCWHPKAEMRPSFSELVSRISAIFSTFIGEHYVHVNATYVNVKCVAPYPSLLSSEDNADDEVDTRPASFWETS

SMILES	IC50 [nM]
COc1cc2nccc(Oc3ccc(NC(=O)NC(=O)c4ccccc4Cl)c(F)c3)c2cc1OC [Example 107, 1-(2-chloro-benzoyl)-3-[4-(6,7-dimethoxy-quinolin-4-yloxy)-2-fluorophenyl]urea]	345
COc1cc2nccc(Oc3ccc(NC(=O)NC(=O)c4ccccc4C)c(F)c3)c2cc1OC [Example 108, 1-[4-(6,7-dimethoxyquinolin-4-yloxy)-2-fluorophenyl]-3-(2-methyl-benzoyl)urea]	2080
CCCCC(=O)NC(=O)Nc1ccc(Oc2ccnc3cc(OC)c(OC)cc23)c(Cl)c1 [Example 109, 1-[3-chloro-4-(6,7-dimethoxyquinolin-4-yloxy)phenyl]-3-pentanoylurea]	1480
CCN(CC)CC(=O)NC(=O)Nc1ccc(Oc2ccnc3cc(OC)c(OC)cc23)c(Cl)c1 [Example 110, 1-[3-chloro-4-(6,7-dimethoxyquinolin-4-yloxy)phenyl]-3-(2-diethylaminoacetyl)urea]	2380
COc1cc2nccc(Oc3ccc(NC(=O)NC(=O)CN4CCCC4)cc3Cl)c2cc1OC [Example 111, 1-[3-chloro-4-(6,7-dimethoxyquinolin-4-yloxy)phenyl]-3-(2-pyrrolidin-1-ylacetyl)urea]	1810
COc1cc2nccc(Oc3ccc(NC(=O)NC(=O)CN(C)C(C)C)cc3Cl)c2cc1OC [Example 112, 1-[3-chloro-4-(6,7-dimethoxyquinolin-4-yloxy)phenyl]-3-[2-(isopropylmethylamino)acetyl]urea]	1730
COc1cc2nccc(Oc3ccc(NC(=O)NC(=O)CSC4CCCCC4)cc3)c2cc1OC [Example 113, 1-(2-cyclohexylsulfanylacetyl)-3-[4-(6,7-dimethoxyquinolin-4-yloxy)phenyl]urea]	653
COc1cc2nccc(Oc3ccc(NC(=O)NC(=O)CSC4CCCCC4)c(F)c3)c2cc1OC [Example 114, 1-(2-cyclohexylsulfanylacetyl)-3-[4-(6,7-dimethoxyquinolin-4-yloxy)-2-fluorophenyl]urea]	485
COc1cc2nccc(Oc3ccc(NC(=O)NC(=O)CSC4CCCCC4)cc3F)c2cc1OC [Example 115, 1-(2-cyclohexylsulfanylacetyl)-3-[4-(6,7-dimethoxyquinolin-4-yloxy)-3-fluorophenyl]urea]	359
COc1cc2nccc(Oc3ccc(NC(=O)NC(=O)CSC4CCCC4)cc3Cl)c2cc1OC [Example 116, 1-[3-chloro-4-(6,7-dimethoxyquinolin-4-yloxy)phenyl]-3-(2-cyclopentylsulfanylacetyl)urea]	344
COc1cc2nccc(Oc3ccc(NC(=O)NC(=O)CN4CCCc5cc(C)ccc54)c(F)c3)c2cc1OC [Example 119, 1-[4-(6,7-dimethoxyquinolin-4-yloxy)-2-fluorophenyl]-3-[2-(6-methyl-3,4-dihydro-2H-quinolin-1-yl)acetyl]urea]	442
COc1cc2nccc(Oc3ccc(NC(=O)NC(=O)CN4CCC(Cc5ccccc5)CC4)cc3F)c2cc1OC [Example 120, 1-[2-(4-benzyl-piperidin-1-yl)acetyl]-3-[4-(6,7-dimethoxyquinolin-4-yloxy)-3-fluorophenyl]urea]	1570
COc1cc2nccc(Oc3ccc(NC(=O)NC(=O)CN4CCc5ccccc54)c(F)c3)c2cc1OC [Example 121, 1-[2-(2,3-dihydro-1H-1-indol-1-yl)acetyl]-3-[4-(6,7-dimethoxyquinolin-4-yloxy)-2-fluorophenyl]urea]	338
COc1cc2nccc(Oc3ccc(NC(=O)NC(=O)CN4CCc5ccccc54)cc3F)c2cc1OC [Example 122, 1-[2-(2,3-dihydro-1H-1-indol-1-yl)acetyl]-3-[4-(6,7-dimethoxyquinolin-4-yloxy)-3-fluorophenyl]urea]	303

The remaining lines, values ahead:

IC50 [nM]	SMILES
2010	COc1cc2nccc(Oc3ccc(NC(=O)NC(=O)Cn4ccnn4)cc3Cl)c2cc1OC [Example 123, 1-[3-chloro-4-(6,7-dimethoxyquinolin-4-yloxy)phenyl]-3-(2-[1,2,3]triazol-1-ylacetyl)urea]
264	COc1cc2nccc(Oc3ccc(NC(=O)NC(=O)Cc4ccc(C)cc4)c(F)c3)c2cc1OC [Example 124, 1-[4-(6,7-dimethoxyquinolin-4-yloxy)-2-fluorophenyl]-3-(2-p-tolylacetyl)urea]
330	COc1cc2nccc(Oc3ccc(NC(=O)NC(=O)CC4C5CCC4CC5)c(F)c3)c2cc1OC (stereo not shown) [Example 126, 1-(2-bicyclo[2.2.1]hepto-7-ylacetyl)-3-[4-(6,7-dimethoxyquinolin-4-yloxy)-2-fluorophenyl]urea]
319	COc1cc2nccc(Oc3ccc(NC(=O)NC(=O)CC4C5CCC4CC5)cc3F)c2cc1OC (stereo not shown) [Example 127, 1-(2-bicyclo[2.2.1]hepto-7-ylacetyl)-3-[4-(6,7-dimethoxyquinolin-4-yloxy)-3-fluorophenyl]urea]
285	COc1cc2nccc(Oc3ccc(NC(=O)NC(=O)CC4C5CCC4CC5)cc3Cl)c2cc1OC (stereo not shown) [Example 128, 1-(2-bicyclo[2.2.1]hepto-7-ylacetyl)-3-[3-chloro-4-(6,7-dimethoxyquinolin-4-yloxy)phenyl]urea]
1010	COc1cc2nccc(Oc3ccc(NC(=O)NC(=O)CSc4ccccc4)cc3)c2cc1OC [Example 129, 1-[4-(6,7-dimethoxyquinolin-4-yloxy)phenyl]-3-(2-phenylsulfanylacetyl)urea]
2160	COc1cc2nccc(Oc3ccc(NC(=O)NC(=O)CSc4nccn4C)cc3Cl)c2cc1OC [Example 130, 1-[3-chloro-4-(6,7-dimethoxyquinolin-4-yloxy)phenyl]-3-[2-(1-methyl-1H-imidazol-2-ylsulfanyl)-acetyl]urea]
2370	COc1cc2nccc(Oc3ccc(NC(=O)NC(=O)CN4CCSCC4)cc3Cl)c2cc1OC [Example 131, 1-[3-chloro-4-(6,7-dimethoxyquinolin-4-yloxy)phenyl]-3-(2-thiomorpholin-4-ylacetyl)urea]
268	COc1cc2nccc(Oc3ccc(NC(=O)NC(=O)Cc4cc(F)ccc4F)c(F)c3)c2cc1OC [Example 132]
261	COc1cc2nccc(Oc3ccc(NC(=O)NC(=O)Cc4cc(F)ccc4F)cc3F)c2cc1OC [Example 133, 1-[2-(2,5-difluorophenyl)acetyl]-3-[4-(6,7-dimethoxyquinolin-4-yloxy)-3-fluorophenyl]urea]
232	COc1cc2nccc(Oc3ccc(NC(=O)NC(=O)Cc4c(F)cccc4F)c(F)c3)c2cc1OC [Example 134, 1-[2-(2,6-difluorophenyl)acetyl]-3-[4-(6,7-dimethoxyquinolin-4-yloxy)-2-fluorophenyl]urea]
226	COc1cc2nccc(Oc3ccc(NC(=O)NC(=O)Cc4c(F)cccc4F)cc3F)c2cc1OC [Example 135, 1-[2-(2,6-difluorophenyl)acetyl]-3-[4-(6,7-dimethoxyquinolin-4-yloxy)-3-fluorophenyl]urea]
342	COc1cc2nccc(Oc3ccc(NC(=O)NC(=O)Cc4ccccc4C(F)(F)F)c(F)c3)c2cc1OC [Example 136, 1-[4-(6,7-dimethoxyquinolin-4-yloxy)-2-fluorophenyl]-3-[2-(2-trifluoromethylphenyl)acetyl]urea]
271	COc1cc2nccc(Oc3ccc(NC(=O)NC(=O)Cc4ccccc4C(F)(F)F)cc3F)c2cc1OC [Example 137, 1-[4-(6,7-dimethoxyquinolin-4-yloxy)-3-fluorophenyl]-3-[2-(2-trifluoromethylphenyl)acetyl]urea]
